The supplement of paper PMC8967900

Experiments:
Experiment in all cases: selective drug sensitivity score (sDSS, relative to normal bone marrow) (sDSS (score)); higher = more potent and effective on the cell line relative to normal bone marrow cells
Conditions in all cases: 72 h
RPMI-8402 = tested on: RPMI-8402
REH = tested on: REH
ALL-PO = tested on: ALL-PO
SEM cells = tested on: SEM cells
COG-LL-394h = tested on: COG-LL-394h
DND-41 = tested on: DND-41
CCRF-CEM = tested on: CCRF-CEM
P12-ICHIKAWA = tested on: P12-ICHIKAWA
MHH-CALL-2 = tested on: MHH-CALL-2
LC4-1 = tested on: LC4-1
MN-60 = tested on: MN-60
HAL-01 = tested on: HAL-01
COG-LL-319h = tested on: COG-LL-319h
KASUMI-10 = tested on: KASUMI-10
KASUMI-2 = tested on: KASUMI-2
NALM-6 = tested on: NALM-6
MHH-CALL-3 = tested on: MHH-CALL-3
PF-382 = tested on: PF-382
MOLT-4 = tested on: MOLT-4
MOLT-14 = tested on: MOLT-14
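Also: ALL cell lines in 384-well plates, five doses spanning 10,000-fold, each plate scaled between vehicle and 100 µmol/L benzalkonium chloride controls, sDSS an adapted area-under-curve metric.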

| SMILES | selective drug sensitivity score (RPMI-8402) | selective drug sensitivity score (REH) | selective drug sensitivity score (ALL-PO) | selective drug sensitivity score (SEM cells) | selective drug sensitivity score (COG-LL-394h) | selective drug sensitivity score (DND-41) | selective drug sensitivity score (CCRF-CEM) | selective drug sensitivity score (P12-ICHIKAWA) | selective drug sensitivity score (MHH-CALL-2) | selective drug sensitivity score (LC4-1) | selective drug sensitivity score (MN-60) | selective drug sensitivity score (HAL-01) | selective drug sensitivity score (COG-LL-319h) | selective drug sensitivity score (KASUMI-10) | selective drug sensitivity score (KASUMI-2) | selective drug sensitivity score (NALM-6) | selective drug sensitivity score (MHH-CALL-3) | selective drug sensitivity score (PF-382) | selective drug sensitivity score (MOLT-4) | selective drug sensitivity score (MOLT-14) |
| --- | --- | --- | --- | --- | --- | --- | --- | --- | --- | --- | --- | --- | --- | --- | --- | --- | --- | --- | --- | --- |
| C[C@H]1C[C@@H]2[C@H]([C@@H](O)C[C@@]3(C)[C@H]2CC[C@]3(O)C(=O)CO)[C@@]2(C)C=CC(=O)C=C12 [Methylprednisolone] (top concentration 10000 nM) | -2.1 | -2.3 | 34.1 | 7.9 | -2.3 | 31.6 | 6.4 | 19.8 | 26.5 | 5.9 | -1.5 | 1.5 | 14.2 | -2.3 | 11.6 | 22.4 | 33.2 | -1.6 | -2.3 | -2.3 |
| FC(F)(F)c1ccc(/C=C/c2nc(COc3ccc(CCCCn4ccnn4)cc3)co2)cc1 [Mubritinib] (top concentration 1000 nM) | 22.5 | 20 | 6.16 | 6.56 | 16.2 | 5.46 | 6.06 | 20.7 | 4.76 | 4.86 | 17.6 | 3.06 | 11.1 | -2.24 | 11.6 | 12.1 | 3.06 | 14.2 | 19.6 | 4.46 |
| COc1cc2c(cc1OC(C)C)[C@H](c1ccc(Cl)cc1)N(c1ccc(N(C)C[C@H]3CC[C@H](N4CCN(C)C(=O)C4)CC3)cc1)C(=O)C2 [NVP-CGM097] (top concentration 25000 nM) | -4.64 | 5.16 | -3.84 | -4.84 | 6.56 | -5.64 | -4.24 | -5.64 | 10.8 | 10.1 | -0.44 | 10.6 | 10.8 | 11.7 | 8.16 | 5.66 | 13.1 | -5.04 | 11.8 | 8.36 |
| CCOc1cc2ncc(C#N)c(Nc3ccc(OCc4ccccn4)c(Cl)c3)c2cc1NC(=O)/C=C/CN(C)C [Neratinib] (top concentration 1000 nM) | 3.08 | -0.12 | 5.28 | 1.28 | 5.48 | -0.62 | 2.48 | 1.28 | 2.58 | 3.58 | 0.38 | -0.42 | 6.58 | 3.68 | -0.72 | 0.48 | 4.98 | 0.88 | 1.38 | 4.28 |
| COc1ncc(-c2ccc3nccc(-c4ccnnc4)c3c2)cc1NS(=O)(=O)c1ccc(F)cc1F [Omipalisib] (top concentration 1000 nM) | 10.9 | 14.4 | 21.9 | 9.4 | -1.1 | -0.8 | 12 | 4 | 11 | 1.6 | 8.9 | 20.1 | 9.8 | 1.6 | 12.9 | 17.2 | 11.4 | 9.8 | 14 | -2.2 |
| CN1CCN(c2cc(C(=O)Nc3ccc4c(c3)-c3c(c(C(N)=O)nn3-c3ccc(F)cc3)CC4)c(Cl)cn2)CC1 [PHA-408] (top concentration 10000 nM) | 1.88 | 0.08 | 0.78 | -2.02 | -1.22 | 3.48 | 0.48 | -0.02 | 1.58 | 3.98 | -4.12 | 2.58 | 5.08 | 0.18 | 4.48 | 0.78 | -0.72 | 1.48 | 0.58 | -0.22 |
| OC[C@H]1O[C@@H](n2cnc3c2N=CNC[C@H]3O)C[C@@H]1O [Pentostatin] (top concentration 10000 nM) | -0.44 | -0.44 | -0.44 | -0.44 | -0.44 | -0.44 | -0.34 | -0.44 | -0.44 | -0.44 | -0.44 | 0.36 | 3.06 | -0.44 | -0.44 | -0.44 | -0.44 | -0.44 | -0.44 | -0.24 |
| CC(C)N(C[C@H]1O[C@@H](n2cnc3c(N)ncnc32)[C@H](O)[C@@H]1O)[C@H]1C[C@@H](CCc2nc3cc(C(C)(C)C)ccc3[nH]2)C1 [Pinometostat] (top concentration 1000 nM) | 0 | 0 | 0 | 0 | 0 | 0 | 0 | 0 | 0 | 0 | 0.3 | 0 | 0 | 0 | 0 | 0 | 0 | 0 | 0 | 0 |
| Cc1ccc(=O)n(-c2ccccc2)c1 [Pirfenidone] (top concentration 10000 nM) | 0 | 0 | 0 | 0 | 0 | 0 | 0 | 0 | 0 | 0 | 0 | 0 | 1.2 | 0 | 0 | 0 | 0 | 0 | 0 | 0 |
